Reference: patent US20260034252A1, “FIBROBLAST ACTIVATION PROTEIN-TARGETED COMPOSITIONS AND METHODS OF USE THEREOF” (Ratio Therapeutics, Inc., priority 2022, published 2026)

Biological target: T1, FAP (Homo sapiens (Human), UniProt Q12884)
Assay: surface plasmon resonance assay
Format: binding
Conditions: read-out: affinity

T1 sequence (Q12884 whole entry): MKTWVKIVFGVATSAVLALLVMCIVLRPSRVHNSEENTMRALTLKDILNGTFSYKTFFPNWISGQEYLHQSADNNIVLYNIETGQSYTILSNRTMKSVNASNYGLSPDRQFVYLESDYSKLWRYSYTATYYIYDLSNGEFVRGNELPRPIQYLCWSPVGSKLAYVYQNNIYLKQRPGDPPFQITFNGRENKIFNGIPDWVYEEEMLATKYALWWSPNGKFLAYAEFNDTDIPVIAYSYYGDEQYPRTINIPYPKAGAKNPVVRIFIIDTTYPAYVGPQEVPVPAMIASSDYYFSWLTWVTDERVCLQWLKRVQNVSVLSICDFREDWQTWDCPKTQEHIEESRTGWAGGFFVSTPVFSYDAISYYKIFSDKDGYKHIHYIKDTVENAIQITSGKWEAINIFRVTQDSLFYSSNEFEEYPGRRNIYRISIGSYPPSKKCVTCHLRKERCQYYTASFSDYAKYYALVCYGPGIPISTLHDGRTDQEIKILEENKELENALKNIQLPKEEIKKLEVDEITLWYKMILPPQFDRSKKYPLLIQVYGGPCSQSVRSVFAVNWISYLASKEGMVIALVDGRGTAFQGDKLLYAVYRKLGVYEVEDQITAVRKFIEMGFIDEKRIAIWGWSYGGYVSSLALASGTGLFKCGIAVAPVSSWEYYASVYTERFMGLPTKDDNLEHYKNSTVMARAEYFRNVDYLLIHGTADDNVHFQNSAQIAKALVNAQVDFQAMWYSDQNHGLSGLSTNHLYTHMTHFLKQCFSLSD

Compound	Kd [pM]
CN(CCCN1CCN(C(=O)CN2CCN(CC(=O)O)CCN(CC(=O)O)CCN(CC(=O)O)CC2)CC1)c1ccc2nccc(C(=O)NCC(=O)N3CC(F)(F)C[C@H]3C#N)c2c1 [FAP-46]	255

Biological target: T1, FAP
Assay: FAP protease inhibition assay (FAM-labeled substrate peptide, microfluidic electrophoresis)
Format: biochemical
Conditions: enzyme 0.5 nM, substrate peptide 1 uM, 15 minutes pre-incubation, three hours for human FAP
Description: Protease reactions were assembled in 384 well plates (Greiner) in a total volume of 20 uL as described below.
Recombinant proteins were pre-diluted in assay buffer comprising of 100 mM HEPES, pH 7.5, 0.1% BSA, 0.01% Triton X-100, 1 mM DTT, and dispensed into 384 well plate (10 uL per well). Test compounds were serially pre-diluted in DMSO and added to the assay wells by acoustic dispensing (Labcyte Echo 550). Control samples (0%-inhibition in the absence of inhibitor, DMSO only) and 100%-inhibition (in the absence of enzyme) were assembled in replicates of four and used to calculate the %-inhibition in the presence of compounds. Concentration of DMSO was equalized to 1% in all samples.
Compounds were pre-incubated with enzymes for 15 minutes. Human FAP was obtained from Enzo, catalogue number BML-SE409-0010. […] Final concentration of enzymes were 0.5 nM. Final concentration of substrate peptides was 1 uM.
The reactions were allowed to proceed at room temperature. Incubation time was three hours for human FAP, 0.5 hours for mouse FAP.
Terminated plates were analyzed using a microfluidic electrophoresis instrument (Caliper LabChip® 3000, Caliper Life Sciences/Perkin Elmer). A change in relative intensity of the peptide substrate and cleaved product was the parameter measured. Activity in each test sample was determined as the product to sum ratio (PSR):P/(S+P), where P is the peak height of the product, and S is the peak height of the substrate. Percent inhibition (Pinh) was determined using the following equation: Pinh=(PSR0% inh−PSRcompound)/(PSR0% inh−PSR100% inh)*100, in which: PSRcompound is the product/sum ratio in the presence of compound, PSR0% inh is the product/sum ratio in the absence of compound and the PSR100% inh is the product/sum ratio in the absence of the enzyme.

IC50 [pM]	Compound
100 to 500	CCCC(=O)NCCCC[C@H](NC(=O)[C@H](CCCCNC(=S)Nc1ccc(CC2CN(CC(=O)O)CCN(CC(=O)O)CCN2CC(=O)O)cc1)NC(=O)CCOCCOCCOCCNC(=O)COc1ccc2c(C(=O)NCC(=O)N3CCC[C@H]3C#N)ccnc2c1)C(=O)O (stereo partly shown) [RTX-1317S]
< 100	CCCCCC(=O)NCCCC[C@H](NC(=O)[C@H](CCCCNC(=S)Nc1ccc(CC2CN(CC(=O)O)CCN(CC(=O)O)CCN2CC(=O)O)cc1)NC(=O)CCOCCOCCOCCNC(=O)COc1ccc2c(C(=O)NCC(=O)N3CCC[C@H]3C#N)ccnc2c1)C(=O)O (stereo partly shown) [RTX-1318S]
100 to 500	CC(=O)NCCCC[C@H](NC(=O)[C@H](CCCCNC(=S)Nc1ccc(CC2CN(CC(=O)O)CCN(CC(=O)O)CCN2CC(=O)O)cc1)NC(=O)CCOCCOCCOCCNC(=O)COc1ccc2c(C(=O)NCC(=O)N3CCC[C@H]3B(O)O)ccnc2c1)C(=O)O (stereo partly shown) [RTX-1319R]
< 100	CC(=O)NCCCC[C@H](NC(=O)[C@H](CCCCNC(=O)c1ccc(F)c(C#N)c1)NC(=O)CCOCCOCCOCCNC(=O)COc1ccc2c(C(=O)NCC(=O)N3CCC[C@H]3C#N)ccnc2c1)C(=O)O [RTX-1324S, (S)-2-[(S)-2-(3-{2-[2-(2-{2-[4-({2-[(S)-2-Cyano-1-pyrrolidinyl]-2-oxoethylamino}carbonyl)-7-quinolyloxy]acetylamino}ethoxy)ethoxy]ethoxy}propionylamino)-6-(3-cyano-4-fluorobenzoylamino)hexanoylamino]-6-acetylaminohexanoic Acid]
500 to 5000	CC(=O)NCCCC[C@H](NC(=O)[C@H](CCCCNC(=O)c1ccc(F)c(C(F)(F)F)c1)NC(=O)CCOCCOCCOCCNC(=O)COc1ccc2c(C(=O)NCC(=O)N3CCC[C@H]3C#N)ccnc2c1)C(=O)O [RTX-1325S]
100 to 500	CC(=O)NCCCC[C@H](NC(=O)[C@H](CCCCNC(=O)CN1CCN(CC(=O)O)CCN(CC(=O)O)CC1)NC(=O)CCOCCOCCOCCNC(=O)COc1ccc2c(C(=O)NCC(=O)N3CCC[C@H]3C#N)ccnc2c1)C(=O)O [RTX-1339S]
100 to 500	CCCC(=O)NCCCC[C@H](NC(=O)[C@H](CCCCNC(=O)CN1CCN(CC(=O)O)CCN(CC(=O)O)CC1)NC(=O)CCOCCOCCOCCNC(=O)COc1ccc2c(C(=O)NCC(=O)N3CCC[C@H]3C#N)ccnc2c1)C(=O)O [RTX-1340S]
< 100	CCCCCCCC(=O)NCCCC[C@H](NC(=O)[C@H](CCCCNC(=O)CN1CCN(CC(=O)O)CCN(CC(=O)O)CCN(CC(=O)O)CC1)NC(=O)CCOCCOCCOCCNC(=O)COc1ccc2c(C(=O)NCC(=O)N3CCC[C@H]3C#N)ccnc2c1)C(=O)O [RTX-1350S]
100 to 500	CC(=O)NCCCC[C@H](NC(=O)[C@H](CCCCNC(=O)CN1CCN(CC(=O)O)CCN(CC(=O)O)CCN(CC(=O)O)CC1)NC(=O)CCOCCOCCOCCNC(=O)COc1ccc2c(C(=O)NCC(=O)N3CCC[C@H]3C#N)ccnc2c1)C(=O)O [RTX-1353S]
< 100	CC(C)Cc1ccc(CC(=O)NCCCC[C@H](NC(=O)[C@H](CCCCNC(=O)CN2CCN(CC(=O)O)CCN(CC(=O)O)CCN(CC(=O)O)CC2)NC(=O)CCOCCOCCOCCNC(=O)COc2ccc3c(C(=O)NCC(=O)N4CCC[C@H]4C#N)ccnc3c2)C(=O)O)cc1 [RTX-1354S]
100 to 500	CCCCCCCC(=O)NCCCC[C@H](NC(=O)[C@H](CCCCNC(=O)CN1CCN(CC(=O)O)CCN(CC(=O)O)CCN(CC(=O)O)CC1)NC(=O)CCOCCOCCOCCNC(=O)COc1ccc2c(C(=O)NCC(=O)N3CCC[C@H]3B(O)O)ccnc2c1)C(=O)O [RTX-1355R]
< 100	CC(C)Cc1ccc(CC(=O)NCCCC[C@H](NC(=O)[C@H](CCCCNC(=O)CN2CCN(CC(=O)O)CCN(CC(=O)O)CCN(CC(=O)O)CC2)NC(=O)CCOCCOCCOCCNC(=O)COc2ccc3c(C(=O)NCC(=O)N4CCC[C@H]4B(O)O)ccnc3c2)C(=O)O)cc1 [RTX-1359R, 2-[2-(3-{2-[2-(2-{2-[4-({2-[(R)-2-(1,2-dihydroxaboro)-1-pyrrolidinyl]-2-oxoethylamino}-carbonyl)-7-quinolyloxy]acetylamino}ethoxy)ethoxy]ethoxy}propionylamino)-6-{2-[4,7,10-tris(carb-oxymethyl)-1,4,7,10-tetraaza-1-cyclododecyl]acetylamino}hexanoylamino]-6-[2-(p-isobutylphenyl)-acetylamino]hexanoic Acid]
< 100	CCCCCC(=O)NCCCC[C@H](NC(=O)[C@H](CCCCNC(=O)CN1CCN(CC(=O)O)CCN(CC(=O)O)CCN(CC(=O)O)CC1)NC(=O)CCOCCOCCOCCNC(=O)COc1ccc2c(C(=O)NCC(=O)N3CCC[C@H]3C#N)ccnc2c1)C(=O)O [RTX-1360S]
< 100	CCCCCC(=O)NCCCC[C@H](NC(=O)[C@H](CCCCNC(=O)CN1CCN(CC(=O)O)CCN(CC(=O)O)CCN(CC(=O)O)CC1)NC(=O)CCOCCOCCOCCNC(=O)COc1ccc2c(C(=O)NCC(=O)N3CCC[C@H]3B(O)O)ccnc2c1)C(=O)O [RTX-1361R]
< 100	CCCCCC(=O)NCCCC[C@H](NC(=O)[C@H](CCCCNC(=O)CN1CCN(CC(=O)O)CCN(CC(=O)O)CC1)NC(=O)CCOCCOCCOCCNC(=O)COc1ccc2c(C(=O)NCC(=O)N3CCC[C@H]3C#N)ccnc2c1)C(=O)O [RTX-1363S, 2,2′-(7-((S)-17-(((S)-1-carboxy-5-hexanamidopentyl)carbamoyl)-1-((4-((2-((S)-2-cyanopyrrolidin-1-yl)-2-oxoethyl)carbamoyl)quinolin-7-yl)oxy)-2,15,23-trioxo-6,9,12-trioxa-3,16,22-triazatetracosan-24-yl)-1,4,7-triazonane-1,4-diyl)diacetic Acid]
100 to 500	CC(C)Cc1ccc(CC(=O)NCCCC[C@H](NC(=O)[C@H](CCCCNC(=S)Nc2ccc(CCOc3cc(CN4CCOCCOCCN(Cc5cccc(C(=O)O)n5)CCOCCOCC4)nc(C(=O)O)c3)cc2)NC(=O)CCOCCOCCOCCNC(=O)COc2ccc3c(C(=O)NCC(=O)N4CCC[C@H]4B(O)O)ccnc3c2)C(=O)O)cc1 [RTX-1399R, 4-(4-(3-((S)-1-((4-((2-((R)-2-boronopyrrolidin-1-yl)-2-oxoethyl)carbamoyl)quinolin-7-yl)oxy)-17-(((S)-1-carboxy-5-(2-(4-isobutylphenyl)acetamido)pentyl)carbamoyl)-2,15-dioxo-6,9,12-trioxa-3,16-diazahenicosan-21-yl)thioureido)phenethoxy)-6-((16-((6-carboxypyridin-2-yl)methyl)-1,4,10,13-tetraoxa-7,16-diazacyclooctadecan-7-yl)methyl)picolinic acid]

Compound	IC50 [pM]
2,2′,2″-(10-(8-(1-((4-((2-((R)-2-boronopyrrolidin-1-yl)-2-oxoethyl)carbamoyl)quinolin-7-yl)oxy)-2-oxo-6,9,12-trioxa-3-azapentadecanamido)-39-carboxy-48-(4-isobutylphenyl)-2,9,37,45-tetraoxo-13,16,19,22,25,28,31,34-octaoxa-3,10,38,44-tetraazaoctatetracontyl)-1,4,7,10-tetraazacyclo-dodecane-1,4,7-triyl)triacetic acid [RTX-1357R]	< 100
COc1ccc2c(C(=O)NCC(=O)N3CCC[C@H]3C#N)ccnc2c1 [RTX-1326S, 7-Methoxy-quinoline-4-carboxylic Acid [2-((S)-2-cyano-pyrrolidin-1-yl)-2-oxo-ethyl]-amide]	500 to 5000
CC(C)Cc1ccc(CCCC(=O)NCCCC[C@H](NC(=O)[C@H](CCCCNC(=O)CN2CCN(CC(=O)O)CCN(CC(=O)O)CCN(CC(=O)O)CC2)NC(=O)CCOCCOCCOCCNC(=O)COc2ccc3c(C(=O)NCC(=O)N4CCC[C@H]4C#N)ccnc3c2)C(=O)O)cc1 [RTX-1352S]	< 100
CC(C)Cc1ccc(CCCC(=O)NCCCC[C@H](NC(=O)[C@H](CCCCNC(=O)CN2CCN(CC(=O)O)CCN(CC(=O)O)CCN(CC(=O)O)CC2)NC(=O)CCOCCOCCOCCNC(=O)COc2ccc3c(C(=O)NCC(=O)N4CCC[C@H]4B(O)O)ccnc3c2)C(=O)O)cc1 [RTX-1356R]	100 to 500
CCCCCC(=O)NCCCC[C@H](NC(=O)[C@H](CCCCNC(=O)CN1CCN2CCN(CC1)CC(=O)[O][Cu][O]C(=O)C2)NC(=O)CCOCCOCCOCCNC(=O)COc1ccc2c(C(=O)NCC(=O)N3CCC[C@H]3C#N)ccnc2c1)C(=O)O [RTX-1363S-Cu]	< 100
